For assay [1], the target named is T1, HIV-1 reverse transcriptase (HIV-1 RT) (Human immunodeficiency virus type 1 group M subtype B, UniProt P04585).
T1 construct: culture supernatant was removed and HIV-1 RT activity was assayed in triplicate; endogenous in cells; host or cells: Sup T1 cells infected with HIV-1; virion-associated enzyme in the culture supernatant
As to the kind of experiment: Inhibition of HIV-1 reverse-transcriptase activity in culture supernatant of infected Sup T1 cells. Type of assay: cell-based. The note with it: for Inhibition of HIV-1 RT activity: 300 μM compound, Sup T1 cells treated 6 hours, supernatant at 96 hours post-infection, mean of duplicate.

In assay [2] the test system is HIV-1 strain IIIB. The assay can be described thus: Infected centers assay: inhibition of HIV-1 induced syncytia formation (HIV-1 replication). The note with it: 300 μM compound; PBL treated 2 hours, infected with HIV-1 IIIB, co-cultured with Sup T1 cells, read at 72 hours; control 144 syncytia/10^4 cells; mean of triplicate. Type of assay: cell-based. How it is done: The infected centers assay as described by Henderson et al., Virology 1991, 182, 186, was used to measure the ability of the conjugated trimer core compounds of the invention to inhibit HIV-1 induced syncytia formation, an indicator of HIV-1 replication in T cells. […] The infected PBL were maintained in RPMI-1640 medium supplemented with 10% (v/v) heat-inactivated fetal calf serum at 37° C. in a humidified 5% CO2 in air atmosphere. After 48 hours, the cells were washed twice in Hank's balanced salt solution, serially diluted and seeded into multiple wells of a 96-well microtiter plate. Immediately, 2×10^5 exponentially growing Sup T1 cells were added to each well; Sup T1 cells readily form a syncytium with a cell which is productively infected with HIV-1. The wells were examined daily for the presence of syncytia, using a tissue culture microscope. The first signs of syncytia formation can be seen in 12 hours, with some complete syncytia developing by 24 hours. Final results were read at 72 hours. Each syncytium was counted as a single infected cell. The number of syncytia per seeded cell was determined and expressed as an infected center per infected cell. The number of syncytia per […] was 144 for the control Sup T1 cells.

In assay [3] the target is recombinant human GST-RNase L (Homo sapiens, UniProt Q05823). The note with it: 10 μM compound; mean of duplicate.
Assay [4] concerns HIV-1. The settings on record: literature ref [11]; cited from earlier work.
The target in assay [5] is T2, RNase L (Homo sapiens, UniProt Q05823).
T2 sequence (Q05823 1-741): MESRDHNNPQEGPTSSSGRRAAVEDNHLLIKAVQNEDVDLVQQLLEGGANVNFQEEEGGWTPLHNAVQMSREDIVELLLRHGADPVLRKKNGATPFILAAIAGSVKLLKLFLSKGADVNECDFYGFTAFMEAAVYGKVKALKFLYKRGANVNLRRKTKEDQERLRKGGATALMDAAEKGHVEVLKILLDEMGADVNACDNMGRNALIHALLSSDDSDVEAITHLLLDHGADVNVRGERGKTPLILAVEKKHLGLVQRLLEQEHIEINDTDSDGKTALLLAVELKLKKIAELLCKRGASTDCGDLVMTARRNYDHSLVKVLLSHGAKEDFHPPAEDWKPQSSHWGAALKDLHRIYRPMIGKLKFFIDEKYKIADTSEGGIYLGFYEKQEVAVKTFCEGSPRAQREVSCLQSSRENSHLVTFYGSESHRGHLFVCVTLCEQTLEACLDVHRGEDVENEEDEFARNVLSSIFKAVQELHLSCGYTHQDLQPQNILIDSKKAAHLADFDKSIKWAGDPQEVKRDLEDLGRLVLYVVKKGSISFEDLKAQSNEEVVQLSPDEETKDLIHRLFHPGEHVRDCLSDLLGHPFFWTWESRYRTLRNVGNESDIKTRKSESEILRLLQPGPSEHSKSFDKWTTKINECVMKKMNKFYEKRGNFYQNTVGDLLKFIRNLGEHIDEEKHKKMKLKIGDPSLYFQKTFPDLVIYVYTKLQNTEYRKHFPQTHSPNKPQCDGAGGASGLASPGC
The note with it: literature ref [10]; cited from earlier work.

Several values for one entry are separate records, joined by “and”; a condition that tells them apart may be missing. Identical values can stand only once.

Take `Nc1ncnc2c1ncn2[C@@H]1O[C@H](CO)C[C@H]1O` [Cordycepin]: in assay [1] (SUP-T1, read-out: Inhibition of HIV-1 RT activity), the inhibition at 300 µM was 13%. Besides, in assay [2], the “Inhibition of syncytia formation (fold reduction in infection)” value (shortened to “Inhibition … (fold reduction in infection)”) turned out to be 1.5 fold.

For the molecule (2′-5′)d^3′(A-A-A) [CCC], the “Activation of RNase L (percent hydrolysis of poly(U)-3′-[32P]pCp)” value in assay [3] is reported as 12%. Further, the “Inhibition of HIV-1 RT activity” value in assay [1] was 96%. For the same molecule, the HIV-1 production entry in assay [4] is listed as “inhibits HIV-1 production”. For the same molecule, in assay [5], the “Activation of RNase L” value is on record as “no activation”. Also, the “Inhibition … (fold reduction in infection)” value in assay [2] is given as 4.8 fold.

As for `Nc1nc2ncc(CNc3ccc(C(=O)N[C@@H](CCC(=O)NCCCCCC(=O)OC[C@H]4O[C@@H](n5cnc6c(N)ncnc65)[C@H](OP(=O)(O)OC[C@@H]5C[C@@H](OP(=O)(O)OC[C@@H]6C[C@@H](O)[C@H](n7cnc8c(N)ncnc87)O6)[C@H](n6cnc7c(N)ncnc76)O5)[C@@H]4O)C(=O)O)cc3)nc2c(=O)[nH]1` [compound 33], in assay [3], the “Activation of RNase L (percent hydrolysis of poly(U)-3′-[32P]pCp)” value was determined as 35%. Further, the “Inhibition of HIV-1 RT activity” value in assay [1] was determined as 81%. In addition, the “Inhibition … (fold reduction in infection)” value in assay [2] is 7.5 fold and 7.2 fold.

For `Nc1nc2ncc(CNc3ccc(C(=O)N[C@@H](CCC(=O)NCCCCCC(=O)O[C@@H]4C[C@@H](COP(=O)(O)O[C@@H]5C[C@@H](COP(=O)(O)O[C@@H]6C[C@@H](CO)O[C@H]6n6cnc7c(N)ncnc76)O[C@H]5n5cnc6c(N)ncnc65)O[C@H]4n4cnc5c(N)ncnc54)C(=O)O)cc3)nc2c(=O)[nH]1` [compound 26], the “Inhibition of HIV-1 RT activity” value in assay [1] amounted to 45%. In addition, in assay [2], the “Inhibition … (fold reduction in infection)” value is recorded as 2.4 fold.

These data come from US6362171B1, “Aminoaklanoyl-linked conjugates of 2′,5′-oligoadenylate and antiviral uses thereof” (priority 1997, dated 2002).
